The results in this text go back to BindingDB's records for doi:10.1016/S0960-894X(01)80421-2 (1993).

Bounds are passed on as bounds.

The assay concerns the target Chorismate synthase (Escherichia coli) (UniProt P12008). The assay can be described thus: Compound was evaluated for the binding affinity towards Escherichia coli chorismate synthase.

What is called Kd is the concentration at which binding is half-saturated. The low end stands for tighter binding, the high end for weaker binding.

Chain of Chorismate synthase (Escherichia coli) (P12008 whole entry, looked up): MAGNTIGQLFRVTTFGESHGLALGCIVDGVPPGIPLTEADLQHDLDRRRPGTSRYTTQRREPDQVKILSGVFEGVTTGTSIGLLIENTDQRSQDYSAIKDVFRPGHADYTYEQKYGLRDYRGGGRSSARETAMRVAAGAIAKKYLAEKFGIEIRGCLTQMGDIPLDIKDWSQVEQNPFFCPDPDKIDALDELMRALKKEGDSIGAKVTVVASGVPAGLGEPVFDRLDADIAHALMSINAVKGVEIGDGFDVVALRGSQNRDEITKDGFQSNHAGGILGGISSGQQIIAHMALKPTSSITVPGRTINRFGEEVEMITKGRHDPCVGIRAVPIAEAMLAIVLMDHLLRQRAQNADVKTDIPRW

Compound `Cc1cc2nc3c(=O)[nH]c(=O)nc-3n(C[C@H](O)[C@H](O)[C@H](O)COP(=O)(O)O)c2cc1C` [E101a] showed a Kd greater than 20 µM.
